Data published in patent US20100093763A1, “PHENYL SUBSTITUTED THIENO[2,3-d]PYRIMIDINES AND THEIR USE AS ADENOSINE A2a RECEPTOR ANTAGONISTS” (priority 2008, published 2010).
Where a name gives a salt, the structure may show the parent alone.

Key:
[1] = molecular target: T1, human adenosine A2a receptor (Homo sapiens, UniProt P29274); assay: Adenosine A2a Receptor Functional Assay (A2AGAL2); assay type: cell-based; conditions: CHO-K1 cells overexpressing human A2a receptor, cAMP inducible beta-galactosidase reporter, 15 nM NECA agonist challenge
T1 construct: expressed in transfected cells; host or cells: CHO-K1 cells with cAMP inducible beta-galactosidase reporter gene
T1 sequence (P29274 whole entry): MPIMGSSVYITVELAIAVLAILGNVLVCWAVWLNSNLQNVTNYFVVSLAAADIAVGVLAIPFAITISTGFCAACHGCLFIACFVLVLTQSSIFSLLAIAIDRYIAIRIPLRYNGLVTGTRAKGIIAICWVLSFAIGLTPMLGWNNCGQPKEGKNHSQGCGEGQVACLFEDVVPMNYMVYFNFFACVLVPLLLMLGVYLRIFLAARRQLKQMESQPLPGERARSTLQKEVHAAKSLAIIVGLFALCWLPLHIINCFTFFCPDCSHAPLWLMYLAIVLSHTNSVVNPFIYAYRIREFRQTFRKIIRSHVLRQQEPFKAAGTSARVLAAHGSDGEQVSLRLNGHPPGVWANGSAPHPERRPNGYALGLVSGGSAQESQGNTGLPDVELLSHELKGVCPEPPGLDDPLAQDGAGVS
Protocol: Adenosine A2a Receptor Functional Assay (A2AGAL2)
To initiate the functional assay, cryopreserved CHO—K1 cells overexpressing the human adenosine A2a receptor and containing a cAMP inducible beta-galactosidase reporter gene were thawed, centrifuged, DMSO containing media removed, and then seeded with fresh culture media into clear 384-well tissue culture treated plates (BD #353961) at a concentration of 10K cells/well. Prior to assay, these plates were cultured for two days at 37° C., 5% CO2, 90% Rh. On the day of the functional assay, culture media was removed and replaced with 45 uL assay medium (Hams/F-12 Modified (Mediatech #10-080CV) supplemented w/0.1% BSA). Test compounds were diluted and 11 point curves created at a 1000× concentration in 100% DMSO. Immediately after addition of assay media to the cell plates, 50 nL of the appropriate test compound antagonist or agonist control curves were added to cell plates using a Cartesian Hummingbird. Compound curves were allowed to incubate at room temperature on cell plates for approximately 15 minutes before addition of a 15 nM NECA (Sigma E2387) agonist challenge (5 uL volume). A control curve of NECA, a DMSO/Media control, and a single dose of Forskolin (Sigma F3917) were also included on each plate. After additions, cell plates were allowed to incubate at 37° C., 5% CO2, 90% Rh for 5.5-6 hours. After incubation, media was removed, and cell plates were washed 1× 50 uL with DPBS w/o Ca & Mg (Mediatech 21-031-CV). Into dry wells, 20 uL of 1× Reporter Lysis Buffer (Promega E3971 (diluted in dH2O from 5× stock)) was added to each well and plates frozen at −20° C. overnight. For β-galactosidase enzyme calorimetric assay, plates were thawed out at room temperature and 20 μL 2× assay buffer (Promega) was added to each well. Color was allowed to develop at 37° C., 5% CO2, 90% Rh for 1-1.5 h or until reasonable signal appeared. The calorimetric reaction was stopped with the addition of 60 μL/well 1M sodium carbonate. Plates were counted at 405 nm on a SpectraMax Microplate Reader (Molecular Devices). Data was analyzed in Microsoft Excel and IC/EC50 curves were fit using a standardized macro.

[2] = molecular target: T2, human A2a adenosine receptor (Homo sapiens, UniProt P29274); assay: Ligand Binding Assay for Adenosine A2a Receptor (A2A-B); conditions: plasma membrane of HEK293 cells containing human A2a receptor, radioligand [3H]CGS21680
T2 construct: purchased PerkinElmer RB-HA2a; host or cells: HEK293 cells (plasma membrane preparation)
T2 sequence (P29274 whole entry): as above
Protocol: Ligand Binding Assay for Adenosine A2a Receptor
Ligand binding assay of adenosine A2a receptor was performed using plasma membrane of HEK293 cells containing human A2a adenosine receptor (PerkinElmer, RB-HA2a) and radioligand [^3H]CGS21680 (PerkinElmer, NET1021). Assay was set up in 96-well polypropylene plate in total volume of 200 μL by sequentially adding 20 μL1:20 diluted membrane, 130 μL assay buffer (50 mM Tris•HCl, pH7.4 10 mM MgCl2, 1 mM EDTA) containing [^3H] CGS21680, 50 μL diluted compound (4×) or vehicle control in assay buffer. Nonspecific binding was determined by […] NECA. Reaction was carried out at room temperature for 2 hours before filtering through 96-well GF/C filter plate pre-soaked in 50 mM Tris•HCl, pH7.4 containing 0.3% polyethylenimine. Plates were then washed 5 times with cold 50 mM Tris•HCl, pH7.4, dried and sealed at the bottom. Microscintillation fluid 30 μL was added to each well and the top sealed. Plates were counted on Packard Topcount for [^3H]. Data was analyzed in Microsoft Excel and GraphPad Prism programs. (Varani, K.; Gessi, S.; Dalpiaz, A.; Borea, P. A. British Journal of Pharmacology, 1996, 117, 1693)

[3] = molecular target: T3, human adenosine A1 receptor (Homo sapiens, UniProt P30542); assay: Adenosine A1 Receptor Functional Assay (A1GAL2); assay type: cell-based; conditions: CHO-K1 cells overexpressing human A1 receptor, cAMP inducible beta-galactosidase reporter, 4 nM r-PIA/1 uM Forskolin agonist challenge
T3 construct: expressed in transfected cells; host or cells: CHO-K1 cells with cAMP inducible beta-galactosidase reporter gene
T3 sequence (P30542 1-326): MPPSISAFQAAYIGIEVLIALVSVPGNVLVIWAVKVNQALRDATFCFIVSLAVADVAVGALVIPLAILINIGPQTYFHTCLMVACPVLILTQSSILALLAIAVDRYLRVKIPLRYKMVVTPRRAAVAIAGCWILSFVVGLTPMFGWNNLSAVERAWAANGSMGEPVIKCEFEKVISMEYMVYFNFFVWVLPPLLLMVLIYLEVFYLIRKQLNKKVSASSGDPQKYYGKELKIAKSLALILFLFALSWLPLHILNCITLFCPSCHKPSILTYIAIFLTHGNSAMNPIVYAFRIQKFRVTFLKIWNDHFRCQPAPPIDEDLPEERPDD
Protocol: Adenosine A1 Receptor Functional Assay (A1GAL2)
To initiate the functional assay, cryopreserved CHO—K1 cells overexpressing the human adenosine A1 receptor and containing a cAMP inducible beta-galactosidase reporter gene were thawed, centrifuged, DMSO containing media removed, and then seeded with fresh culture media into clear 384-well tissue culture treated plates (BD #353961) at a concentration of 10K cells/well. Prior to assay, these plates were cultured for two days at 37° C., 5% CO2, 90% Rh. On the day of the functional assay, culture media was removed and replaced with 45 uL assay medium (Hams/F-12 Modified (Mediatech #10-080CV) supplemented w/0.1% BSA). Test compounds were diluted and 11 point curves created at a 1000× concentration in 100% DMSO. Immediately after addition of assay media to the cell plates, 50 nL of the appropriate test compound antagonist or agonist control curves were added to cell plates using a Cartesian Hummingbird. Compound curves were allowed to incubate at room temperature on cell plates for approximately 15 minutes before addition of a 4 nM r-PIA (Sigma P4532)/1 uM Forskolin (Sigma F3917) agonist challenge (5 uL volume). A control curve of r-PIA in 1 uM Forskolin, a DMSO/Media control, and a single dose of Forskolin were also included on each plate. After additions, cell plates were allowed to incubate at 37° C., 5% CO2, 90% Rh for 5.5-6 hours. After incubation, media was removed, and cell plates were washed lx 5OuL with DPBS w/o Ca & Mg (Mediatech 21-031-CV).
Into dry wells, 20 uL of 1× Reporter Lysis Buffer (Promega E3971 (diluted in dH2O from 5× stock)) was added to each well and plates frozen at −20° C. overnight. For β-galactosidase enzyme calorimetric assay, plates were thawed out at room temperature and 20 μL 2× assay buffer (Promega) was added to each well. Color was allowed to develop at 37° C., 5% CO2, 90% Rh for 1-1.5 h or until reasonable signal appeared. The calorimetric reaction was stopped with the addition of 60 μL/well 1M sodium carbonate. Plates were counted at 405 nm on a SpectraMax Microplate Reader (Molecular Devices). Data was analyzed in Microsoft Excel and IC/EC50 curves were fit using a standardized macro.

COc1ccccc1Cc1cc2c(N)nc(-c3cccc(C#N)c3)nc2s1 [Example 9, 3-[4-Amino-6-(2-methoxy-benzyl)-thieno[2,3-d]pyrimidin-2-yl]-benzonitrile]
Ki [1]: 6.15 nM
Ki [2]: 12.5 nM
Ki [3]: 129 nM

COc1ccccc1C(=O)c1cc2c(N)nc(-c3cccc(F)c3)nc2s1 [Example 21, [4-Amino-2-(3-fluoro-phenyl)-thieno[2,3-d]pyrimidin-6-yl]-(2-methoxy-phenyl)-methanone]
Ki [1]: 80.1 nM
Ki [3]: 162 nM

CC(c1ccccc1)c1cc2c(N)nc(-c3cccc(C#N)c3)nc2s1 (racemic) [Example 10, (±)-3-[4-Amino-6-(1-phenyl-ethyl)-thieno[2,3-d]pyrimidin-2-yl]-benzonitrile]
Ki [1]: 340 nM
Ki [3]: 1770 nM

COc1ccccc1C(=O)c1cc2c(N)nc(-c3cccc(C#N)c3)nc2s1 [Example 17, 3-[4-Amino-6-(2-methoxy-benzoyl)-thieno[2,3-d]pyrimidin-2-yl]-benzonitrile]
Ki [1]: 23 nM
Ki [3]: 1040 nM

Nc1nc(-c2cccc(C(F)(F)F)c2)nc2sc(Cc3ccccc3)cc12 [Example 12, 6-Benzyl-2-(3-trifluoromethyl-phenyl)-thieno[2,3-d]pyrimidin-4-ylamine]
Ki [1]: 1020 nM
Ki [3]: > 1040 nM

N#Cc1cccc(-c2nc(N)c3cc(CCc4ccccc4)sc3n2)c1 [Example 2, 3-(4-Amino-6-phenethyl-thieno[2,3-d]pyrimidin-2-yl)-benzonitrile]
Ki [1]: 802 nM
Ki [3]: 4640 nM

COc1ccccc1C(=O)c1cc2c(N)nc(-c3cccc(OC(F)(F)F)c3)nc2s1 [Example 18, [4-Amino-2-(3-trifluoromethoxy-phenyl)-thieno[2,3-d]pyrimidin-6-yl]-(2-methoxy-phenyl)-methanone]
Ki [1]: 175 nM
Ki [3]: 865 nM

COc1ccccc1Cc1cc2c(N)nc(-c3cccc(F)c3)nc2s1 [Example 19, 2-(3-Fluoro-phenyl)-6-(2-methoxy-benzyl)-thieno[2,3-d]pyrimidin-4-ylamine]
Ki [1]: 62.4 nM
Ki [2]: 39.3 nM
Ki [3]: 418 nM

N#Cc1cccc(-c2nc(N)c3cc(Cc4ccccc4OC(F)(F)F)sc3n2)c1 [Example 15, 3-[4-Amino-6-(2-trifluoromethoxy-benzyl)-thieno[2,3-d]pyrimidin-2-yl]-benzonitrile]
Ki [1]: 39.1 nM
Ki [3]: 1010 nM

N#Cc1cccc(-c2nc(N)c3cc(Cc4ccccc4)sc3n2)c1 [Example 1, 3-(4-Amino-6-benzyl-thieno[2,3-d]pyrimidin-2-yl)-benzonitrile]
Ki [1]: 10.6 nM
Ki [2]: 16.8 nM
Ki [3]: 205 nM

Nc1nc(-c2cccc(F)c2)nc2sc(Cc3ccccc3)cc12 [Example 14, 6-Benzyl-2-(3-fluoro-phenyl)-thieno[2,3-d]pyrimidin-4-ylamine]
Ki [1]: 42.2 nM
Ki [3]: 123 nM

N#Cc1cccc(-c2nc(N)c3cc(C4(c5ccccc5)CC4)sc3n2)c1 [Example 6, 3-[4-Amino-6-(1-phenyl-cyclopropyl)-thieno[2,3-d]pyrimidin-2-yl]-benzonitrile]
Ki [1]: 222 nM
Ki [3]: > 610 nM

COc1ccccc1-c1nc(N)c2cc(Cc3ccccc3)sc2n1 [Example 11, 6-Benzyl-2-(2-methoxy-phenyl)-thieno[2,3-d]pyrimidin-4-ylamine]
Ki [1]: 217 nM
Ki [3]: 374 nM

Nc1nc(-c2cccc(F)c2)nc2sc(Cc3cc(F)cc(F)c3)cc12 [Example 20, 6-(3,5-Difluoro-benzyl)-2-(3-fluoro-phenyl)-thieno[2,3-d]pyrimidin-4-ylamine]
Ki [1]: 188 nM
Ki [3]: 564 nM

COc1cccc(-c2nc(N)c3cc(Cc4ccccc4)sc3n2)c1 [Example 13, 6-Benzyl-2-(3-methoxy-phenyl)-thieno[2,3-d]pyrimidin-4-ylamine hydrochloride]
Ki [1]: 118 nM
Ki [3]: 266 nM

C=C(c1ccccc1)c1cc2c(N)nc(-c3cccc(C#N)c3)nc2s1 [Example 5, 3-[4-Amino-6-(1-phenyl-vinyl)-thieno[2,3-d]pyrimidin-2-yl]-benzonitrile]
Ki [1]: 63.4 nM
Ki [3]: > 1040 nM
